One data set deals with HIV. Particulars: cited from earlier work.
For data set [1], the system named is RNA-dependent DNA-polymerase (viral reverse transcriptase). As to conditions: in vitro incorporation into DNA growing chains, DNA chain terminated; cited from earlier work.
Data set [2] in a line: Clinical Study No. 2: plasma/serum AZT by radioimmunoassay, AZT alone then AZT + p-acetamidobenzoic acid. It is filed as in vivo, AIDS patients. As to conditions: for Cmax: human, plasma, po, 100 mg, mean peak plasma level of AZT; for concentration: read-out: mean nadir level of AZT. The procedure:
(§1) The patients were then placed on the following dosing regimen:
(§2) No other drugs that are believed to affect hepatic glucuronidation were administered.

The nature of data set [3]: Clinical Study 1: plasma/serum AZT by radioimmunoassay, AZT alone then AZT + inosiplex. As to conditions: for Cmax: plasma, mean peak plasma level of AZT; for concentration: read-out: mean nadir level of AZT. In kind it is in vivo, AIDS patients. The procedure: as §1, §2
For data set [4] the following is noted: cited from earlier work.
In data set [5] the test system is HIV (Human Immunodeficiency Virus). As to conditions: cited from earlier work.
Data set [6] in a line: Pharmacokinetics studies of AZT 100 mg every 6 hours before the study. It is filed as in vivo, AIDS patients. Particulars: 100 mg AZT every 6 hours (400 mg total daily dose).
The next data set concerns bone marrow. The experiment in a line: Bone marrow toxicity of AZT in the study patients before the study. In kind it is in vivo, AIDS patients. As to conditions: 200 mg AZT orally every four hours (1,200 mg daily), and again on 800 mg daily for 2 months; 5 patients.
Data set [7] is described as follows: Clinical Study 3: plasma/serum AZT by radioimmunoassay, AZT alone then AZT + inosine + INPX. It is filed as in vivo, AIDS patients. Particulars: for Cmax: human, plasma, po, 100 mg, mean peak plasma level of AZT; for concentration: read-out: mean nadir level of AZT. The procedure: as §1, §2
The mark [8] stands for this setting: with zidovudine, GB 2 181 128 A.

What is called Cmax is the highest concentration seen after dosing.

Like-named read-outs stand apart in the source and are kept apart here.

Consider `CCCN(CCC)S(=O)(=O)c1ccc(C(=O)O)cc1` [probenecid], for which the effect on zidovudine result in the data set on HIV (setting [8]) is on record as “synergistic effect”.

Turning to `O=C(O)P(=O)(O)O` [foscarnet], the effect on zidovudine entry in the data set with HIV (setting [8]) is “synergistic effect”.

With alpha-interferon, the effect on zidovudine result in the data set on HIV (setting [8]) is given as “synergistic effect”.

`OCCN(CCO)c1nc(N2CCCCC2)c2nc(N(CCO)CCO)nc(N3CCCCC3)c2n1` [dipyridamole]: the effect on zidovudine result in the data set with HIV (setting [8]) was “synergistic effect”.

“gamma-interferon: alpha-, beta, and gamma-interferons”: the effect on zidovudine entry with HIV (setting [8]) is reported as “synergistic effect”.

For `Cc1ccc(C(=O)Nc2ccc(S(=O)(=O)O)c3cc(S(=O)(=O)O)cc(S(=O)(=O)O)c23)cc1NC(=O)c1cccc(NC(=O)Nc2cccc(C(=O)Nc3cc(C(=O)Nc4ccc(S(=O)(=O)O)c5cc(S(=O)(=O)O)cc(S(=O)(=O)O)c45)ccc3C)c2)c1` [suramine], the effect on zidovudine result in the data set with HIV (setting [8]) is on record as “synergistic effect”.

`NC(=O)C1CN(CC(=O)Nc2c(Cl)cccc2Cl)CCN1CCCC(c1ccc(F)cc1)c1ccc(F)cc1` (centres unmarked) [mioflazine]: in the data set on HIV (setting [8]), the effect on zidovudine entry is “synergistic effect”.

As to `COc1cc(C(=O)OCCCN(C)CCN(C)CCCOC(=O)c2cc(OC)c(OC)c(OC)c2)cc(OC)c1OC` [hexobendine], the effect on zidovudine result with HIV (setting [8]) is reported as “synergistic effect”.

As to `Cc1cccc(C)c1NC(=O)CN1CCN(CCCC(c2ccc(F)cc2)c2ccc(F)cc2)CC1` [lidoflazine], the effect on zidovudine entry in the data set with HIV (setting [8]) is “synergistic effect”.

Turning to `COc1cc(C(=O)OCCCN2CCCN(CCCOC(=O)c3cc(OC)c(OC)c(OC)c3)CC2)cc(OC)c1OC` [dilazep], in the data set with HIV (setting [8]), the effect on zidovudine result was “synergistic effect”.

With `Nc1nc2c(ncn2COCCO)c(=O)[nH]1` [acyclovir], the effect on zidovudine result in the data set with HIV (setting [8]) is “synergistic effect”.

For `c1ccc([C@H]2CN3CCSC3=N2)cc1` [levamisole], the effect on zidovudine entry in the data set with HIV is listed as “synergistic effect”.

For `Cc1cn([C@H]2C[C@H](N=[N+]=[N-])[C@@H](CO[P@](=O)(O)O[P@](=O)(O)OP(=O)(O)O)O2)c(=O)[nH]c1=O` [zidovudine triphosphate], the “effect on RNA-dependent DNA-polymerase (viral reverse transcriptase)” value in data set [1] was “incorporated into the DNA growing chains by viral reverse transcriptase, whereby DNA chain is terminated”.

For the molecule `Cc1cn([C@H]2C[C@H](N=[N+]=[N-])[C@@H](CO)O2)c(=O)[nH]c1=O` [AZT, 3'-azido-3'-deoxythymidine], the “serum level at time 0” value in [2] (before the taking of AZT alone or of AZT and p-acetamidobenzoic acid) amounted to 10 nM. Further, the Cmax in data set [2] (100 mg AZT with 1 gm p-acetamidobenzoic acid every 6 hrs, day 14, standard deviation 1.8 μM, range 0.16 to 4.7 μM) was determined as 2450 nM; in data set [2] (AZT alone 100 mg oral every 6 hours, day 7, standard deviation 0.75 μM, range 0.04 to 2.46 μM) it was 1520 nM; in [3] (human, po, 100 mg, 100 mg AZT with 1 gm INPX every 6 hrs, day 14, standard deviation 1.5 μM, range 0.14 to 4.4 μM), 2250 nM; in data set [3] (human, po, 100 mg, AZT alone 100 mg oral every 6 hours, day 7, standard deviation 0.75 μM, range 0.06 to 2.52 μM) it was 1470 nM; in data set [7] (100 mg AZT with 1 gm inosine and 1 gm INPX every 6 hrs, day 14, standard deviation 1.3 μM, range 0.15 to 4.2 μM), 2760 nM; in data set [7] (AZT alone 100 mg oral every 6 hours, day 7, standard deviation 0.70 μM, range 0.03 to 2.16 μM), 1410 nM. Also, the concentration in data set [2] (100 mg AZT with 1 gm p-acetamidobenzoic acid every 6 hrs, day 14, standard deviation 0.28 μM, range 0.14 to 0.88 μM) is 490 nM; in data set [2] (AZT alone 100 mg oral every 6 hours, day 7, standard deviation 0.19 μM, range 0.04 to 0.6 μM), 250 nM; in data set [3] (100 mg AZT with 1 gm INPX every 6 hrs, day 14, standard deviation 0.25 μM, range 0.15 to 0.84 μM), 460 nM; in data set [3] (AZT alone 100 mg oral every 6 hours, day 7, standard deviation 0.19 μM, range 0.06 to 0.5 μM) it was 240 nM; in [7] (100 mg AZT with 1 gm inosine and 1 gm INPX every 6 hrs, day 14, standard deviation 0.26 μM, range 0.11 to 0.82 μM) it was 510 nM; in data set [7] (AZT alone 100 mg oral every 6 hours, day 7, standard deviation 0.16 μM, range 0.06 to 0.8 μM) it was 210 nM. For the same molecule, the “AZT serum level at time 0” value in data set [3] (before the taking of AZT alone or of AZT and INPX) was found to be 0.013 µM; in data set [7] (before the taking of AZT alone or of AZT, inosine and INPX) it was 0.016 µM. The half-life in data set [3] (human, serum, po, 100 mg, read-out: Serum half-life of the elimination phase (T1/2)) is 44 min; in data set [4] (average), “about 1 hour”. Moreover, the metabolic inactivation result in [4] (liver) is recorded as “rapidly inactivated via glucuronidation in the liver”. Moreover, the “inhibition of in vitro replication of some retroviruses, including HIV” value in data set [5] was “inhibitor of the in vitro replication of some retroviruses, including HIV”. The plasma levels result in data set [6] is reported as “below the therapeutical threshold”. The bone marrow toxicity entry in the data set on bone marrow is recorded as “developped bone marrow toxicity”.

As to `COc1ccc(Cc2nccc3cc(OC)c(OC)cc23)cc1OC` [papaverine], the effect on zidovudine entry in the data set with HIV (setting [8]) is “synergistic effect”.

The record behind these values is patent US5108993A, “Pharmaceutical composition comprising zidovudine and inosiplex or components thereof for the treatment of aids-related syndromes” (priority 1988, dated 1992).
